Data on 88 compounds can be found in a melting point compilation (Tetko et al.; mined from patent text by program, amines drawn as free bases though some values may be those of a salt).

Broadly, the melting point is the temperature, or range, at which the solid turns liquid.

Each structure is given as a SMILES string. Some results are limits rather than exact numbers.

In turn, `CC(C)(C)OC(=O)N1CCC2(CC1)CC(=O)N(OCCO)C2=O` showed a melting point of 97 to 98 °C. `O=C1c2c(Cl)cccc2-n2cnc(C#Cc3cccc(Cl)c3)c2[C@@H]2CCCN12` returned a melting point of 207 to 209 °C. On to `Cc1oc(C=Cc2ccccc2)nc1CCl`, for which the melting point was in the range of 108 to 109 °C. Compound `CC(=O)NC(C(=O)NC(C(=O)NC(Cc1ccccc1)C(O)C(Cc1ccccc1)NC(=O)C(NC(=O)C(NC(C)=O)C(C)C)C(C)C)C(C)C)C(C)C` (stereo not drawn) registered a melting point of 271 to 272 °C. For `CC(=O)CN1CCNC1=Nc1c(Cl)cccc1Cl` the value was 84 to 86 °C; for `Oc1ccc(-c2noc3ccc(O)cc23)cc1`, 266 to 268 °C; for `Fc1cc(Cl)cnc1Cl`, 38 to 39 °C. In turn, `O=P1(NCCBr)OCCCN1CCBr` (stereo not drawn) returned a melting point of 58 to 59 °C. For the compound `CCCCCCCCCCCCCCCCOC[C@@H]1OCCC[C@H]1O` (relative stereo), the melting point lay in the range of 41.5 to 43 °C. Compound `COCc1c(C(O)c2ccccc2)ncc2[nH]c3ccc(OCc4ccccc4)cc3c12` (stereo not drawn) registered a melting point of 190 to 191 °C. Compound `CN(CCN1CCC[C@@H](C(=O)O)C1)C1c2ccccc2CCc2ccccc21` registered a melting point of 187 to 190 °C. The same measure for `CCN1C(=O)C2CC(c3ccc(N)cc3)(C2)C1=O`: 159 to 162 °C.

Turning to `CCCN(CCC)C(=O)C(CO)Nc1nc(-c2ccccc2)nc2c1CCCC2` (stereo not drawn), the melting point lay within 119 to 120 °C. In the case of `CCOC(=O)C1=C(C)NC(C(OCC)OCC)=C(C(=O)OCC)C1c1cccc(O)c1` (stereo not drawn), the melting point lay within 107 to 108 °C. `COc1cc(-c2nc(N3CCNC(C)C3)c3c(C)c(C#N)sc3n2)cc(OC)c1OC` (stereo not drawn): the melting point was in the range of 213 to 215 °C. In turn, `COC(=O)c1cc(N(C)C)c(N(C)C)c(N(C)C)c1` had a melting point of 61 to 63 °C.

With `O=C(O)c1ccc(-c2cc3ccccc3[nH]2)cc1`, the melting point turned out to be 205 °C. The compound `Nc1cc(C(c2cc(F)ccc2F)S(=O)(=O)c2ccc(Cl)cc2)c(Cl)cn1` (stereo not drawn) displayed a melting point of 147 to 150 °C.

`COc1cc2c(cc1OC)CN(CCCc1ccc(N)cc1)CC2` yielded a melting point of 138 °C. `O=C(O)CCC(=O)c1cccc(S(=O)(=O)Cl)c1` yielded a melting point of 73 to 78 °C.

`Cc1ccn2c(=Nc3ccncc3)snc2c1` yielded a melting point of 144 to 145 °C. `O=C(Cl)COc1ccc(Cl)cc1Cl` gave a melting point of 44 to 45 °C.

`O=C1c2cccc3cc([N+](=O)[O-])cc(c23)C(=O)N1OCc1ccccc1`: the melting point fell in the range of 239 to 241 °C.

On to `O=C(Cc1ccc2ccn(C3CCN(CCc4ccc(F)cc4)CC3)c2c1)NCCO`, for which the melting point is 140 to 141 °C. In turn, `COc1ccccc1-c1ccc2cnc(NC(=O)Nc3ccc(N4CCN(C)CC4)cc3)nn12` showed a melting point of 229 to 231 °C.

`CCCSc1sc(C(N)=O)c2c1-c1c(cnn1C)CC2` returned a melting point of 112 to 113 °C. As to `CCCCCCC(=O)C(NC(=O)C=Cc1ccccc1)C(=O)OC` (stereo not drawn), the melting point was 85 to 86 °C. Take `CCCCCC(CO)n1cnc(NC(=O)c2ccccc2C(=O)O)c1` (stereo not drawn): the melting point is 99 to 101 °C.

Take `CC1CCN(c2nc(-c3ncccn3)cc(Cl)c2-c2c(F)cccc2Cl)CC1`: the melting point amounted to 129 °C. For `O=C(N[C@@H](Cc1ccc(O)cc1)C(=O)O)C(=Cc1ccccc1)NC(=O)C(F)(F)F` the value was 165 to 175 °C; for `COc1ccc(OC)c2c1CCOC2CCl` (stereo not drawn), 101 to 102 °C.

In the case of `CC(O)C#CC1(C)C=CN=C(N)N1` (stereo not drawn), the melting point stood at 155 °C. Turning to `CCC1(CC)CSc2ccccc2N(c2ccccc2)C1=O`, the melting point stood at 86.4 °C.

As for `COc1cccc(OC)c1-c1cc(C(=O)NC2(C(=O)O)C3CC4CC(C3)CC2C4)nn1-c1ccc(C(=O)NC2CC(C)(C)NC(C)(C)C2)cc1C(C)C` (stereo not drawn), the melting point lay within 270 to 272 °C. For `Cc1nccc2c1ccc(=O)n2C`, the melting point was in the range of 203 to 205 °C. `Cn1ncnc1COc1nn2c(-c3ccccc3F)nnc2cc1C1CC(F)(F)C1` came in with a melting point of 178 °C. For the compound `CCCCOC(=O)c1c(Cl)nc(CCCC)n1Cc1ccc2oc(-c3ccccc3-c3nnn[nH]3)c(Br)c2c1`, the melting point lay in the range of 88 to 90 °C. As to `CCn1cc(C(=O)Nc2nccs2)c2ccc(Cl)cc21`, the melting point is 234 to 236 °C. The same measure for `COc1cccc(C(=O)N2CCCC(=O)c3ccc(Cl)cc3CCC2=O)c1`: 105 to 106 °C; for `COC(=O)C(=O)C1C(=O)C(=O)C(CCCCCCC(=O)O)C1=O` (stereo not drawn): 127 to 129 °C.

The compound `NS(=O)(=O)C1=CC2=C(OCCO)CCS(=O)(=O)C2S1` (stereo not drawn) displayed a melting point of 159 to 164 °C. Compound `C=C1SC(=O)N(c2ccc3cc(-c4ccc(O)c(C(C)(C)C)c4)ccc3c2)C1=O` had a melting point of 276 to 278 °C. Turning to `CCCCCCNc1nc(Cl)nc2c(SC)ncnc12`, the melting point lay within 80 to 82 °C. For `c1cc(-n2ccnc2)cc(-n2cnc3cc(-c4ccon4)ccc32)c1`, the melting point fell in the range of 230 to 234 °C.

Compound `C=Cc1cn(-c2c(Cl)cc(C(F)(F)F)cc2Cl)nc1C` yielded a melting point of 68.1 to 68.7 °C.

With `Nc1nc(OCc2ccccc2)nc2c1ncn2C1OC(CO)C(O)C1O` (stereo not drawn), the melting point was in the range of 178 to 179 °C. The compound `CC(=O)N(C(C)C(=O)NC(C)C(=O)OC(C)(C)C)C(CO)c1ccccc1` (stereo not drawn) yielded a melting point of 38 to 40 °C.

In the case of `Nc1ccc(Cl)cc1NCC1CCCCC1`, the melting point came out at 62 °C. For the compound `Cc1cc(C)c2nc(NCCCN3CCCCC3)n(Cc3nc(C)ccc3O)c2c1`, the melting point was above 260 °C. In the case of `CCOC(=O)N1CCC(Nc2cc(OC)ccc2N)CC1`, the melting point was 97 to 99 °C. `CC(N)CC(=O)Nc1c(OCC(F)(F)F)cccc1-c1ccccn1` (stereo not drawn) displayed a melting point of 135 to 137 °C. Turning to `CCOC(=O)C(Cc1ccccc1)(Cc1ccc([N+](=O)[O-])cc1)C(=O)OCC`, the melting point fell in the range of 70 to 71 °C.

Turning to `CCCc1c(O)ccc2c(OCc3ccccc3)cc(=O)oc12`, the melting point was 213 to 214 °C. For `CCCNC(=O)[C@H](CSCc1ccccc1)NC(=O)c1cc2cccc(NS(=O)(=O)c3cccs3)c2[nH]1` the value was 124 to 125 °C; for `COc1cc(N)c([N+](=O)[O-])cc1O`, 171 °C. In the case of `CC(C)(C)c1cc2c(c(C(C)(C)C)c1)OCC(/C=C/C=C/C=C/C(=O)O)=C2`, the melting point fell in the range of 166 to 168 °C.

Compound `CCCCCCCCOC1CCC(=O)N1` (stereo not drawn) gave a melting point of 36 to 38 °C. For `NC(=O)c1ccc(C(c2ccccc2)(c2ccccc2)c2ccccc2)cn1` the value was 239 to 240 °C; for `C=Cc1c(C)oc(-c2ccc(S(C)(=O)=O)cc2)c(Oc2ccc(F)cc2F)c1=O`, 184 °C; for `CS(=O)(=O)c1ccc(-c2oc3ccccc3c(=O)c2-c2ccccn2)cc1`, 203 to 204 °C. Take `O=C(O)c1nn(-c2c(Cl)cc(C(F)(F)F)cc2Cl)cc1OC(F)(F)C(F)Cl` (racemic): the melting point fell in the range of 149 to 159 °C. `O=C(OCCn1ccnc1)C(O)c1ccccc1` (stereo not drawn) showed a melting point of 131 to 132 °C.

`Nc1ncc(-c2ccc(=O)[nH]n2)c(-c2cccc(F)c2)n1` came in with a melting point of 249 °C. For `CN1C(=O)CC[C@]2(C)c3ccc(-c4cccc(NC(=O)C(C)(C)C)c4)cc3CC[C@@H]12`, the melting point is 95 to 98 °C. Regarding `CC(C)(C)c1cc(-c2ccc(F)cc2F)cc(C(=O)Nc2ccc(S(=O)(=O)C(F)(F)F)cc2Cl)c1O`, the melting point fell in the range of 114 to 115 °C. The same measure for `CCOc1ccc([N+](=O)[O-])cc1-c1nc2cccnc2c(=O)[nH]1`: 251 to 254 °C; for `OC1CCCCC1n1c(NC2CC2)nc2cc(Cl)c(Cl)cc21` (stereo not drawn): 149 to 151 °C.

The compound `CCCNC(=S)NC1=Nc2ccc(OC(F)(F)F)cc2CS1` had a melting point of 148 to 151 °C. As for `O=C(NN1CCCC1=O)C(O)=CC(=O)c1cc(Cc2ccc(F)cc2F)cn(Cc2ccc(F)cc2)c1=O`, the melting point was 87 to 88 °C. Regarding `O=C(Nc1cc(-c2ccnc3c(C(=O)c4cccs4)cnn23)ccc1F)c1ccncc1`, the melting point is 175 to 179 °C. Consider `COc1ccc(OCCOCn2cnc3ncnc(N)c32)cc1`, for which the melting point was in the range of 129 to 130 °C. Turning to `CCCCCCc1ccc(-c2ccc(-c3ccc(-c4ccc(-c5ccc(-c6ccc(CCCCCC)o6)o5)o4)o3)o2)o1`, the melting point came to 261 °C.

In turn, `COc1ccc2ccc(N3C(=O)c4ccccc4C3OCC(=O)N(C)C)nc2n1` (stereo not drawn) yielded a melting point of 166 °C.

Consider `FC(F)(F)c1cccnc1-n1c(/C=C/c2ccccc2)nc2ccccc21`, for which the melting point was in the range of 156 to 157 °C. Compound `CCCCNc1c(C(=O)OCC)cnc2c1c(C)nc1cc(C)nn12` displayed a melting point of 114 to 116 °C. The same measure for `CCOC(=O)Nc1ccc(C(c2ccccc2)n2ccnc2)cc1COC1CCCCO1` (stereo not drawn): 132 °C; for `CC(/C=C/C(Br)=C(/C)c1ccc2c(c1)C(C)(C)CCC2(C)C)=C\C(=O)O`: 189 to 190 °C; for `CCCCC(CC)NC1=NS(=O)(=O)c2sc(Cl)cc2N1` (stereo not drawn): 165 to 168 °C. The compound `CCCCCCCCCCCCC1N(C)c2cccc3cccc(c23)N1C` registered a melting point of 30 to 32 °C. As for `COC(=O)C1(CC#N)C(=O)N(Cc2ccc(Br)cc2F)C(=O)c2ccccc21` (stereo not drawn), the melting point was 108 to 110 °C.

Compound `OC(c1nn(-c2c(Cl)cc(C(F)(F)F)cc2Cl)cc1C1CC1(Br)Br)C(F)(F)F` (stereo not drawn) showed a melting point of 119 to 121 °C.

For `CC(=O)OCc1ccc2oc(=O)c(C(=O)Oc3cncc(Cl)c3)cc2c1`, the melting point fell in the range of 153 to 155 °C. For `CC(=O)Nc1ccc(SC(F)(F)C(F)F)cc1`, the melting point is 134 to 135 °C. In turn, `O=C(NCc1ccccn1)C1=C(C(=O)Nc2cc(OC3CCCC3)c(Cl)cc2F)CCCC1` displayed a melting point of 144 to 148 °C. `CCOC(=O)c1cn(C2CC2)c2c(C)c(F)c(F)c([N+](=O)[O-])c2c1=O` displayed a melting point of 260 to 263 °C.

Compound `c1ccc(-c2ccc(-c3nc(COc4ccc(CCCn5ccnc5)cc4)co3)s2)cc1` showed a melting point of 128 to 129 °C. For the compound `C=C(CC(Cl)(Cl)Cl)c1cc(Cl)nc(Cl)c1`, the melting point was 82 to 83 °C. Compound `Nc1ccc(Cl)cc1Cc1ccccc1F` showed a melting point of 175 to 181 °C.
